Residues, ends and D or L forms follow the SMILES beside them.

Here are results for 3 molecules from publication PMC7352223, “Mapping of CaM, S100A1 and PIP2-Binding Epitopes in the Intracellular N- and C-Termini of TRPM4” (International Journal of Molecular Sciences, 2020).

The target in the assay is T1, calmodulin (CaM) (Homo sapiens, UniProt P0DP23).
T1 construct: made in house
In words: Steady-state fluorescence anisotropy (FA) binding assay, peptide titrated with CaM. The note with it: carboxyfluorescein-labelled peptide titrated with CaM, 25 mM Tris-HCl pH 7.5, 250 mM NaCl, 200 µM CaCl2, 25 °C, value (SD), anisotropy measured six times per concentration, read-out: KD of peptide/CaM complex, CaM/Ca2+ KD (SD). On the procedure:
First, we studied whether M4nt_WT and M4ct_WT are able to bind CaM and S100A1 at all. The carboxyfluorescein-labelled M4nt_WT and M4ct_WT peptides were titrated with increasing amounts of CaM or S100A1, and FA was measured for each point of titration. The FA increased due to a slower rotational diffusion of the formed complexes, and the fraction bound (Fb) of M4nt_WT and M4ct_WT could be calculated (Figure 2A, Figure 3A, Figure 4A, Figure 5A). Since the specific interactions of M4nt_WT and M4ct_WT with CaM/S100A1 were calcium-dependent, all samples were measured in the presence of 200-μM CaCl2. The fluorescence lifetimes τi of all peptides and their complexes (and all the following characterised peptides/complexes) were constant during all the experiments, with the values close to 3 ns. […] Overall, the FA results indicated the high affinity of M4nt_WT and M4ct_WT peptides to CaM and S100A1. Both M4nt_WT and M4ct_WT peptides thus seemed to represent potential binding epitopes on TRPM4.
The experiments were performed on a K2 spectrofluorometer (ISS, Inc., Champaign, IL, USA) at 25 °C in a cuvette with a 2-mm path length. […] Fluorescence was excited at 490 nm, and polarised emission components III and I⊥, required for the construction of the emission anisotropy, were acquired and averaged quasi-simultaneously at 525 nm by repetitive switching of the emission polariser. […] The anisotropy values r were calculated from the fluorescence intensities in the parallel (III) and perpendicular (I⊥) directions according to the relationship r = (III − GI⊥)/(III + 2GI⊥), where G is a factor correcting for different transmittance of the detection channel for the two measured polarisations (III and I⊥). The G factor was determined in a separate experiment. The measurements were repeated six times for each ligand concentration; the mean anisotropy value was calculated and used for further analysis. […] The Q was evaluated for every binding experiment from the ratio of the fluorescence lifetimes of the bound to the free M4nt, M4ct or PIP2: Q = τbound/τfree. […]
Background: Polarisation of emitted light reports the rotation of a fluorescent probe.
For the molecule `CC(C)C[C@H](NC(=O)[C@@H]1CCCN1C(=O)[C@H](CS)NC(=O)[C@H](CCCNC(=N)N)NC(=O)[C@H](CCCNC(=N)N)NC(=O)[C@H](CC(C)C)NC(=O)[C@H](CC(C)C)NC(=O)[C@H](CC(C)C)NC(=O)[C@H](C)NC(=O)[C@H](C)NC(=O)[C@H](C)NC(=O)[C@H](CCCNC(=N)N)NC(=O)[C@@H](NC(=O)[C@H](CCC(=O)O)NC(=O)[C@H](CO)NC(=O)[C@H](CO)NC(=O)[C@H](CCCNC(=N)N)NC(=O)[C@H](Cc1ccc(O)cc1)NC(=O)[C@H](CS)NC(=O)[C@H](CCC(=O)O)NC(=O)CNC(=O)[C@@H](N)Cc1ccccc1)C(C)C)C(=O)O` [M4nt_R640A] (H-FGECYRSSEVRAAALLLRRCPL-OH), the Kd turned out to be 17 µM.

`CC(C)C[C@H](NC(=O)[C@@H]1CCCN1C(=O)[C@H](CS)NC(=O)[C@H](C)NC(=O)[C@H](C)NC(=O)[C@H](CC(C)C)NC(=O)[C@H](CC(C)C)NC(=O)[C@H](CC(C)C)NC(=O)[C@H](C)NC(=O)[C@H](C)NC(=O)[C@H](C)NC(=O)[C@H](CCCNC(=N)N)NC(=O)[C@@H](NC(=O)[C@H](CCC(=O)O)NC(=O)[C@H](CO)NC(=O)[C@H](CO)NC(=O)[C@H](CCCNC(=N)N)NC(=O)[C@H](Cc1ccc(O)cc1)NC(=O)[C@H](CS)NC(=O)[C@H](CCC(=O)O)NC(=O)CNC(=O)[C@@H](N)Cc1ccccc1)C(C)C)C(=O)O` [M4nt_R640A/R644A/R645A] (H-FGECYRSSEVRAAALLLAACPL-OH): the Kd came to 80 µM.

Turning to `CC(C)C[C@H](NC(=O)[C@@H]1CCCN1C(=O)[C@H](CS)NC(=O)[C@H](CCCNC(=N)N)NC(=O)[C@H](CCCNC(=N)N)NC(=O)[C@H](CC(C)C)NC(=O)[C@H](CC(C)C)NC(=O)[C@H](CC(C)C)NC(=O)[C@H](CCCNC(=N)N)NC(=O)[C@H](C)NC(=O)[C@H](C)NC(=O)[C@H](CCCNC(=N)N)NC(=O)[C@@H](NC(=O)[C@H](CCC(=O)O)NC(=O)[C@H](CO)NC(=O)[C@H](CO)NC(=O)[C@H](C)NC(=O)[C@H](Cc1ccc(O)cc1)NC(=O)[C@H](CS)NC(=O)[C@H](CCC(=O)O)NC(=O)CNC(=O)[C@@H](N)Cc1ccccc1)C(C)C)C(=O)O` [M4nt_R632A] (H-FGECYASSEVRAARLLLRRCPL-OH), the Kd is 27.2 µM.
